Key:
HIV-IIIb = test: Test A: Antiviral Assay in MT4 Cells; type: cell-based, HIV-1; conditions: Human immunodeficiency virus 1, IIIB, MT4, 120 h, read-out: % inhibition at 3 μM
Experimental: Test A: Antiviral Assay in MT4 Cells
For the antiviral assay, 40 μL of 1× test concentration of 3-fold serially diluted compound in culture medium with 10% FBS was added to each well of a 384-well plate (10 concentrations) in quadruplicate. MT-4 cells were next mixed with HIV-IIIb at an m.o.i of 0.003 for 1 hour, after which time 35 μL of virus/cell mixture (2000 cells) was immediately added to each well containing 40 μL of diluted compound. The plates were then incubated at 37° C. for 5 days. After 5 days of incubation, 25 μl of 2× concentrated CellTiter-Glo™ Reagent (catalog #G7571, Promega Biosciences, Inc., Madison, Wis.) was added to each well containing MT-4 cells. Cell lysis was carried out by incubating at room temperature for 10 min and then chemiluminescence was read.

[1] = Test B: Cytotoxicity Assay (protocol of Test A, uninfected cells); type: cell-based; conditions: human, uninfected MT-4 cells, CellTiter-Glo
Experimental: Test B: Cytotoxicity Assay Compound cytotoxicity and the corresponding CC50 values was determined using the same protocol as described in the antiviral assay (Test A) except that uninfected cells were used.

| Compound | inhibition at 3 µM (HIV-IIIb) [%] | CC50 at 5 days [1] [µM] |
| --- | --- | --- |
| Cc1nc([C@H](Cc2cc(F)cc(F)c2)NC(=O)Cn2nc(C(F)(F)F)c3c2C(F)(F)[C@@H]2C[C@H]32)c(-c2cccc3c(NS(C)(=O)=O)nn(C)c23)cc1N [Compound 45, N—((S)-1-(5-amino-6-methyl-3-(1-methyl-3-(methylsulfonamido)-1H-indazol-7-yl)pyridin-2-yl)-2-(3,5-difluorophenyl)ethyl)-2-((3bS,4aR)-5,5-difluoro-3-(trifluoromethyl)-3b,4,4a,5-tetrahydro-1H-cyclopropa[3,4]cyclopenta[1,2-c]pyrazol-1-yl)acetamide] | 110 | 21.5 |
| Cn1nc(NS(C)(=O)=O)c2cccc(-c3cc(N)c(C#N)nc3[C@H](Cc3cc(F)cc(F)c3)NC(=O)Cn3nc(C(F)(F)F)c4c3C(F)(F)[C@@H]3C[C@H]43)c21 [Compound 46F, N—((S)-1-(5-amino-6-cyano-3-(1-methyl-3-(methylsulfonamido)-1H-indazol-7-yl)pyridin-2-yl)-2-(3,5-difluorophenyl)ethyl)-2-((3bS,4aR)-5,5-difluoro-3-(trifluoromethyl)-3b,4,4a,5-tetrahydro-1H-cyclopropa[3,4]cyclopenta[1,2-c]pyrazol-1-yl)acetamide] | 109 | 12.5 |
| Cc1nc([C@H](Cc2cc(F)cc(F)c2)NC(=O)Cn2nc(C(F)F)c3c2C(F)(F)[C@@H]2C[C@H]32)c(-c2ccc(Cl)c3c(NS(C)(=O)=O)nn(C)c23)cc1N [Compound 47C, N—((S)-1-(5-amino-3-(4-chloro-1-methyl-3-(methylsulfonamido)-1H-indazol-7-yl)-6-methylpyridin-2-yl)-2-(3,5-difluorophenyl)ethyl)-2-((3bS,4aR)-3-(difluoromethyl)-5,5-difluoro-3b,4,4a,5-tetrahydro-1H-cyclopropa[3,4]cyclopenta[1,2-c]pyrazol-1-yl)acetamide] | 107 | 18.1 |
| CC(=O)Nc1cc(-c2ccc(Cl)c3c(NS(C)(=O)=O)nn(C)c23)c([C@H](Cc2cc(F)cc(F)c2)NC(=O)Cn2nc(C(F)F)c3c2C(F)(F)[C@@H]2C[C@H]32)nc1C [Compound 48, N—((S)-1-(5-acetamido-3-(4-chloro-1-methyl-3-(methylsulfonamido)-1H-indazol-7-yl)-6-methylpyridin-2-yl)-2-(3,5-difluorophenyl)ethyl)-2-((3bS,4aR)-3-(difluoromethyl)-5,5-difluoro-3b,4,4a,5-tetrahydro-1H-cyclopropa[3,4]cyclopenta[1,2-c]pyrazol-1-yl)acetamide] | 93 | 20.7 |
| Cn1nc(NS(C)(=O)=O)c2c(Cl)ccc(-c3cc(N)cnc3[C@H](Cc3cc(F)cc(F)c3)NC(=O)Cn3nc(C(F)F)c4c3C(F)(F)[C@@H]3C[C@H]43)c21 [Compound 49C, N—((S)-1-(5-amino-3-(4-chloro-1-methyl-3-(methylsulfonamido)-1H-indazol-7-yl)pyridin-2-yl)-2-(3,5-difluorophenyl)ethyl)-2-((3bS,4aR)-3-(difluoromethyl)-5,5-difluoro-3b,4,4a,5-tetrahydro-1H-cyclopropa[3,4]cyclopenta[1,2-c]pyrazol-1-yl)acetamide] | 93 | 28.1 |
| CN(C)c1cnc([C@H](Cc2cc(F)cc(F)c2)NC(=O)Cn2nc(C(F)F)c3c2C(F)(F)[C@@H]2C[C@H]32)c(-c2ccc(Cl)c3c(NS(C)(=O)=O)nn(C)c23)c1 [Compound 50, N—((S)-1-(3-(4-chloro-1-methyl-3-(methylsulfonamido)-1H-indazol-7-yl)-5-(dimethylamino)pyridin-2-yl)-2-(3,5-difluorophenyl)ethyl)-2-((3bS,4aR)-3-(difluoromethyl)-5,5-difluoro-3b,4,4a,5-tetrahydro-1H-cyclopropa[3,4]cyclopenta[1,2-c]pyrazol-1-yl)acetamide] | 86 | 34.2 |
| CNc1cnc([C@H](Cc2cc(F)cc(F)c2)NC(=O)Cn2nc(C(F)F)c3c2C(F)(F)[C@@H]2C[C@H]32)c(-c2ccc(Cl)c3c(NS(C)(=O)=O)nn(C)c23)c1 [Compound 51, N—((S)-1-(3-(4-chloro-1-methyl-3-(methylsulfonamido)-1H-indazol-7-yl)-5-(methylamino)pyridin-2-yl)-2-(3,5-difluorophenyl)ethyl)-2-((3bS,4aR)-3-(difluoromethyl)-5,5-difluoro-3b,4,4a,5-tetrahydro-1H-cyclopropa[3,4]cyclopenta[1,2-c]pyrazol-1-yl)acetamide] | 79 | 16.6 |
| Cn1nc(NS(C)(=O)=O)c2c(Cl)ccc(-c3cc(N)cnc3[C@H](Cc3cc(F)cc(F)c3)NC(=O)Cn3nc(C(F)(F)F)c4c3C(F)(F)[C@@H]3C[C@H]43)c21 [Compound 52, N—((S)-1-(5-amino-3-(4-chloro-1-methyl-3-(methylsulfonamido)-1H-indazol-7-yl)pyridin-2-yl)-2-(3,5-difluorophenyl)ethyl)-2-((3bS,4aR)-5,5-difluoro-3-(trifluoromethyl)-3b,4,4a,5-tetrahydro-1H-cyclopropa[3,4]cyclopenta[1,2-c]pyrazol-1-yl)acetamide] | 104 | 21.5 |
| Cn1nc(NS(C)(=O)=O)c2c(Cl)ccc(-c3cc(N)c(Cl)nc3[C@H](Cc3cc(F)cc(F)c3)NC(=O)Cn3nc(C(F)F)c4c3C(F)(F)[C@@H]3C[C@H]43)c21 [Compound 53B, N—((S)-1-(5-amino-6-chloro-3-(4-chloro-1-methyl-3-(methylsulfonamido)-1H-indazol-7-yl)pyridin-2-yl)-2-(3,5-difluorophenyl)ethyl)-2-((3bS,4aR)-3-(difluoromethyl)-5,5-difluoro-3b,4,4a,5-tetrahydro-1H-cyclopropa[3,4]cyclopenta[1,2-c]pyrazol-1-yl)acetamide] | 91 | 15 |
| Cn1nc(NS(C)(=O)=O)c2c(Cl)ccc(-c3cc(N)c(Cl)nc3[C@H](Cc3cc(F)cc(F)c3)NC(=O)Cn3nc(C(F)(F)F)c4c3C(F)(F)[C@@H]3C[C@H]43)c21 [Compound 54, N—((S)-1-(5-amino-6-chloro-3-(4-chloro-1-methyl-3-(methylsulfonamido)-1H-indazol-7-yl)pyridin-2-yl)-2-(3,5-difluorophenyl)ethyl)-2-((3bS,4aR)-5,5-difluoro-3-(trifluoromethyl)-3b,4,4a,5-tetrahydro-1H-cyclopropa[3,4]cyclopenta[1,2-c]pyrazol-1-yl)acetamide] | 92 | 12.1 |
| CSc1cnc([C@H](Cc2cc(F)cc(F)c2)NC(=O)Cn2nc(C(F)F)c3c2C(F)(F)[C@@H]2C[C@H]32)c(-c2cccc3c(NS(C)(=O)=O)nn(C)c23)n1 [Compound 55G, 2-((3bS,4aR)-3-(difluoromethyl)-5,5-difluoro-3b,4,4a,5-tetrahydro-1H-cyclopropa[3,4]cyclopenta[1,2-c]pyrazol-1-yl)-N—((S)-2-(3,5-difluorophenyl)-1-(3-(1-methyl-3-(methylsulfonamido)-1H-indazol-7-yl)-5-(methylthio)pyrazin-2-yl)ethyl)acetamide] | 107 | 22.1 |
| Cn1nc(NS(C)(=O)=O)c2c(Cl)ccc(-c3ccc(NCCO)nc3[C@H](Cc3cc(F)cc(F)c3)NC(=O)Cn3nc(C(F)(F)F)c4c3C(F)(F)[C@@H]3C[C@H]43)c21 [Compound 56] | 95 | 24.3 |

— patent US9050344B2, “Therapeutic compounds” (Gilead Sciences, Inc., priority 2013, dated 2015)
